Measured values from ChEMBL document CHEMBL1201862, “PubChem BioAssay data set” (2004).
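Dose response: 5 concentrations. Exposure: 48 h. Format: 96-well plates. Endpoint: linear interpolation; highest concentration if not reached. The concentration for 50% growth inhibition is given as GI50.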 The source made the active and inactive calls. No stated cut-off is given here; in the data, active = GI50 up to about 1.1 µM and inactive = higher.

What was measured:
Test in all cases: inhibition of tumour cell growth, NCI panel, 48 h
M14 = tested on: M14
Malme-3M = tested on: Malme-3M
SF-268 = tested on: SF-268
U-251 = tested on: U-251
SK-OV-3 = tested on: SK-OV-3
RXF 393 = tested on: RXF 393
NCI-H23 = tested on: NCI-H23
OVCAR-8 = tested on: OVCAR-8
SN12C = tested on: SN12C
SK-MEL-28 = tested on: SK-MEL-28
MDA-N = tested on: MDA-N
CCRF-CEM = tested on: CCRF-CEM
UACC-62 = tested on: UACC-62
K562 = tested on: K562
HCT-116 = tested on: HCT-116
NCI/ADR-RES = tested on: NCI/ADR-RES
TK-10 = tested on: TK-10
HL-60 = tested on: HL-60
SR = tested on: SR
OVCAR-3 = tested on: OVCAR-3

SMILES	GI50 (M14)	GI50 (Malme-3M)	GI50 (SF-268)	GI50 (U-251)	GI50 (SK-OV-3)	GI50 (RXF 393)	GI50 (NCI-H23)	GI50 (OVCAR-8)	GI50 (SN12C)	GI50 (SK-MEL-28)	GI50 (MDA-N)	GI50 (CCRF-CEM)	GI50 (UACC-62)	GI50 (K562)	GI50 (HCT-116)	GI50 (NCI/ADR-RES)	GI50 (TK-10)	GI50 (HL-60)	GI50 (SR)	GI50 (OVCAR-3)
Cc1cc(O)c2cc3c(O)c(O)ccc3cc2c1	2.86 µM (inactive)	1.4 µM (inactive)	1.07 µM (active)	0.42 µM (active)	0.774 µM (active)	0.713 µM (active)	1.24 µM (inactive)	0.743 µM (active)	2.46 µM (inactive)	9.51 µM (inactive)	2.18 µM (inactive)	1.27 µM (inactive)	1.52 µM (inactive)	1.04 µM (active)	0.494 µM (active)	0.438 µM (active)	3.78 µM (inactive)	1.73 µM (inactive)	0.618 µM (active)	0.46 µM (active)
COC(=O)c1c(CC(Cc2ccc3c(c2)CCCC3)C(=O)OC)ccc2c1CCCC2 (stereo not given)	> 100 µM (inactive)	38 µM (inactive)	55.3 µM (inactive)	98.2 µM (inactive)	39.2 µM (inactive)	60.5 µM (inactive)	69.5 µM (inactive)	> 100 µM (inactive)	> 100 µM (inactive)	> 100 µM (inactive)	77.1 µM (inactive)	35.4 µM (inactive)	> 100 µM (inactive)	32.9 µM (inactive)	72.8 µM (inactive)	> 100 µM (inactive)	> 100 µM (inactive)	16.6 µM (inactive)	34.7 µM (inactive)	> 100 µM (inactive)
CC(C)(C)c1cc(C2COC(=O)COCC(=O)OCCOCCOCCO2)cc(C(C)(C)C)c1O (stereo not given)	19.4 µM (inactive)	> 100 µM (inactive)	18.2 µM (inactive)	34.3 µM (inactive)	24.9 µM (inactive)	20.7 µM (inactive)	> 77.6 µM (inactive)	62.4 µM (inactive)	14.4 µM (inactive)	19.2 µM (inactive)	19.6 µM (inactive)	> 100 µM (inactive)	27.2 µM (inactive)	> 100 µM (inactive)	> 100 µM (inactive)	> 100 µM (inactive)	20.4 µM (inactive)	> 31.6 µM (inactive)	58.1 µM (inactive)	> 100 µM (inactive)
COc1cccc2c1C(=O)c1c(O)c3c(c(O)c1C2=O)C[C@@](O)(C(C)=O)C[C@@H]3OC1CC(N(C)C)C(O)C(C)O1 (stereo not given in full)	0.00439 µM (active)	0.0405 µM (active)	0.00436 µM (active)	0.00425 µM (active)	0.00593 µM (active)	0.00681 µM (active)	0.00508 µM (active)	0.00405 µM (active)	0.00357 µM (active)	0.00516 µM (active)	0.000226 µM (active)	0.00412 µM (active)	0.00427 µM (active)	0.00318 µM (active)	0.00169 µM (active)	0.0575 µM (active)	0.00514 µM (active)	0.00387 µM (active)	0.00135 µM (active)	0.00649 µM (active)
c1cc2nnc1SCCSCCCSCCS2	> 100 µM (inactive)	> 100 µM (inactive)	2.88 µM (inactive)	> 100 µM (inactive)	> 100 µM (inactive)	> 100 µM (inactive)	> 100 µM (inactive)	> 100 µM (inactive)	> 100 µM (inactive)	29.2 µM (inactive)	> 100 µM (inactive)	> 100 µM (inactive)	> 100 µM (inactive)	> 100 µM (inactive)	> 100 µM (inactive)	> 100 µM (inactive)	> 100 µM (inactive)	> 100 µM (inactive)	> 100 µM (inactive)	> 100 µM (inactive)
CCOC(=O)C1CCCC1S(=O)(=O)c1ccc(C)cc1 (stereo not given)	> 100 µM (inactive)	> 100 µM (inactive)	> 100 µM (inactive)	> 100 µM (inactive)	> 100 µM (inactive)	> 100 µM (inactive)	> 100 µM (inactive)	> 100 µM (inactive)	> 100 µM (inactive)	> 100 µM (inactive)	> 100 µM (inactive)	> 100 µM (inactive)	> 100 µM (inactive)	> 100 µM (inactive)	> 100 µM (inactive)	> 100 µM (inactive)	> 100 µM (inactive)	> 100 µM (inactive)	> 100 µM (inactive)	> 100 µM (inactive)
C[N+](C)(C)CCN(Cc1cccs1)c1ccccn1	> 100 µM (inactive)	> 100 µM (inactive)	86.7 µM (inactive)	> 100 µM (inactive)	> 100 µM (inactive)	> 100 µM (inactive)	88.1 µM (inactive)	> 100 µM (inactive)	90.4 µM (inactive)	> 100 µM (inactive)	> 100 µM (inactive)	> 100 µM (inactive)	> 100 µM (inactive)	64.3 µM (inactive)	> 100 µM (inactive)	> 100 µM (inactive)	> 100 µM (inactive)	> 100 µM (inactive)	> 100 µM (inactive)	35.7 µM (inactive)
OCCNC1c2cc(Cl)ccc2-c2c(Cl)cc(Cl)cc21 (stereo not given)	38.1 µM (inactive)	> 100 µM (inactive)	38.5 µM (inactive)	26.3 µM (inactive)	42 µM (inactive)	40.2 µM (inactive)	39.2 µM (inactive)	28.6 µM (inactive)	25.5 µM (inactive)	92.3 µM (inactive)	26.9 µM (inactive)	23.2 µM (inactive)	34 µM (inactive)	33 µM (inactive)	26.5 µM (inactive)	45.9 µM (inactive)	39.7 µM (inactive)	25.6 µM (inactive)	20.5 µM (inactive)	29.8 µM (inactive)
CC(C)(C)N1CC1CNC(=O)C(=O)NCC1CN1C(C)(C)C (stereo not given)	3.61 µM (inactive)	3.4 µM (inactive)	3.03 µM (inactive)	3.05 µM (inactive)	3.69 µM (inactive)	1.67 µM (inactive)	2.74 µM (inactive)	1.79 µM (inactive)	2.33 µM (inactive)	5.42 µM (inactive)	25.8 µM (inactive)	0.665 µM (active)	2.18 µM (inactive)	3.79 µM (inactive)	3.97 µM (inactive)	2.55 µM (inactive)	51.1 µM (inactive)	0.411 µM (active)	0.601 µM (active)	4.62 µM (inactive)
CCCCCCCCCCCCCCCCCC(=O)Nc1ccn(C2OC(CO)C(O)C2O)c(=O)n1 (stereo not given)	14.2 µM (inactive)	> 27.9 µM (inactive)	20.1 µM (inactive)	19.4 µM (inactive)	35.1 µM (inactive)	26.8 µM (inactive)	4.8 µM (inactive)	7.48 µM (inactive)	26.1 µM (inactive)	31.9 µM (inactive)	> 100 µM (inactive)	0.097 µM (active)	40.3 µM (inactive)	7.67 µM (inactive)	3.32 µM (inactive)	30.5 µM (inactive)	> 100 µM (inactive)	3.43 µM (inactive)	2.14 µM (inactive)	7.93 µM (inactive)
CNC(=S)N(C1CCCCC1)C1CCCCC1	> 100 µM (inactive)	47 µM (inactive)	> 100 µM (inactive)	> 100 µM (inactive)	> 100 µM (inactive)	> 100 µM (inactive)	82.8 µM (inactive)	> 100 µM (inactive)	> 100 µM (inactive)	> 100 µM (inactive)	> 100 µM (inactive)	33.1 µM (inactive)	> 100 µM (inactive)	29.9 µM (inactive)	54 µM (inactive)	> 100 µM (inactive)	> 100 µM (inactive)	27.4 µM (inactive)	42.4 µM (inactive)	> 100 µM (inactive)
O=C1C=C(Br)c2c(Br)sc(Br)c21	4.54 µM (inactive)	18.6 µM (inactive)	18.5 µM (inactive)	13.9 µM (inactive)	21.4 µM (inactive)	8.18 µM (inactive)	10.6 µM (inactive)	3.9 µM (inactive)	12.9 µM (inactive)	18.9 µM (inactive)	13.9 µM (inactive)	1.59 µM (inactive)	14 µM (inactive)	4.67 µM (inactive)	6.05 µM (inactive)	12.6 µM (inactive)	6.87 µM (inactive)	5.36 µM (inactive)	2.9 µM (inactive)	13.4 µM (inactive)
CCOC(=O)C(NC(=O)c1cccc(Cl)c1)(N1CCN(c2cc3c(cc2F)c(=O)c(C(=O)O)cn3CC)CC1)C(F)(F)F (stereo not given)	16.8 µM (inactive)	18.2 µM (inactive)	14.1 µM (inactive)	6.7 µM (inactive)	23.9 µM (inactive)	18.2 µM (inactive)	18 µM (inactive)	16.6 µM (inactive)	24.4 µM (inactive)	17 µM (inactive)	14.9 µM (inactive)	2.61 µM (inactive)	16.4 µM (inactive)	5.73 µM (inactive)	14 µM (inactive)	39.8 µM (inactive)	21.3 µM (inactive)	4.47 µM (inactive)	17.1 µM (inactive)	14.8 µM (inactive)
CC1(O)C(=O)OC2CC([C@]3(O)CCC4[C@@H]5C[C@H]6O[C@]67[C@@H](O)C=CC(=O)[C@]7(C)C5CC[C@@]43C)C1(C)C2 (stereo not given in full)	12.6 µM (inactive)	3.76 µM (inactive)	16 µM (inactive)	23.5 µM (inactive)	47.9 µM (inactive)	3.63 µM (inactive)	7.13 µM (inactive)	25.1 µM (inactive)	16.5 µM (inactive)	9.35 µM (inactive)	12.3 µM (inactive)	2.03 µM (inactive)	14.9 µM (inactive)	3.6 µM (inactive)	10.9 µM (inactive)	> 50.9 µM (inactive)	8.73 µM (inactive)	3.52 µM (inactive)	2.69 µM (inactive)	15.8 µM (inactive)
